In this test the target is T1, P2X7 receptor (Homo sapiens, UniProt Q99572).
T1 construct: host or cells: SH-SY5Y
T1 sequence (Q99572 1-595): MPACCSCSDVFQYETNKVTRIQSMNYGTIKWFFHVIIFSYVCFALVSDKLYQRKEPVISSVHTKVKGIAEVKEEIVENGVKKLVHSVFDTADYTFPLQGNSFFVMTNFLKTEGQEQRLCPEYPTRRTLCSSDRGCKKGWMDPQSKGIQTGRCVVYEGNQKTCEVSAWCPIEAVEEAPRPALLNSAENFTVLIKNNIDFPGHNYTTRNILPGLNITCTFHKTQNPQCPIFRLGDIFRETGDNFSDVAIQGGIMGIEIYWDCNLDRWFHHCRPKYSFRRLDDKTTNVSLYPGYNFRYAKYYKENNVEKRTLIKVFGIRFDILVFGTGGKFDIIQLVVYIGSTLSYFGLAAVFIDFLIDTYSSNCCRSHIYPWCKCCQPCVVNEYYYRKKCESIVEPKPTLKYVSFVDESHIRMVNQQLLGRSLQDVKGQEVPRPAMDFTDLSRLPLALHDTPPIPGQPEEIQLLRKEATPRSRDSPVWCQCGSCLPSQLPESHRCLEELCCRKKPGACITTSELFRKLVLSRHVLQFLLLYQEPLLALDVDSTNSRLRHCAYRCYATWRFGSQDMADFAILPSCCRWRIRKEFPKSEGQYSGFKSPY
The experiment in a line: P2X7 calcium mobilization assay, high throughput, antagonist activity (Example 4A). It counts as cell-based. An outline of the steps:
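FLIPR^TETRA calcium read-out: maximum RFU per well minus average no-agonist control, with agonist wells giving the average positive maximum. Cells seeded at 100,000/well one day ahead, dye-loaded 1 h, rinsed, then exposed to compound for 1 h at room temperature.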
For orientation: Calcium assays in cells follow changes in intracellular calcium, usually with a dye or a luminescent sensor.

[1] abbreviates: 50% decrease in the fluorescence response of cells exposed to 80 μM 2′(3′)-O-(4-benzoyl-benzoyl)adenosine 5′-triphosphate, Example 4A, read-out: IC50.

Each structure is given as a SMILES string. Read-outs that look alike come from different tables or passages of the source.

In patent US8431593B2, “Heteroaryl amide derivatives” (H. Lundbeck A/S, priority 2006, dated 2013) one finds IC50 data, which are given here for 11 compounds.

What is called IC50 is the concentration that gives 50% inhibition.

Take `COC(=O)C1CCCN1C(=O)c1cn2c(C(=O)NC[C@@H]3CC[C@H]4C[C@@H]3C4(C)C)cccc2n1` (stereo partly drawn) [Compound 480, methyl 1-{[5-({[(1S,2R,5S)-6.6-dimethylbicyclo[3.1.1]hept-2-yl]methyl}carbamoyl)imidazo[1,2-a]pyridin-2-yl]carbonyl}prolinate]: under setting [1], the IC50 was below 2000 nM.

As for `COC(=O)CN(C)C(=O)c1cn2c(C(=O)NC[C@@H]3CC[C@H]4C[C@@H]3C4(C)C)cccc2n1` [Compound 481, methyl N-{[5-({[(1S,2R,5S)-6,6-dimethylbicyclo[3.1.1]hept-2-yl]methyl}carbamoyl)imidazo[1,2-a]pyridin-2-yl]carbonyl}-N-methylglycinate], the IC50 under setting [1] was below 2000 nM.

Take `CCOC(=O)CN(C)C(=O)c1cn2c(C(=O)NC[C@@H]3CC[C@H]4C[C@@H]3C4(C)C)cccc2n1` [Compound 482, ethyl N-{[5-({[(1S,2R,5S)-6,6-dimethylbicyclo[3.1.1]hept-2-yl]methyl}carbamoyl)imidazo[1,2-a]pyridin-2-yl]carbonyl}-N-methylglycinate]: under setting [1], the IC50 is below 2000 nM.

As to `COCCN(C(=O)c1cn2c(C(=O)NC[C@@H]3CC[C@H]4C[C@@H]3C4(C)C)cccc2n1)C(C)C` [Compound 483, 5-N-{[(1S,2R,5S)-6,6-dimethylbicyclo[3.1.1]hept-2-yl]methyl}-2-N-isopropyl-2-N-(2-methoxyethyl)imidazo [1,2-a]pyridine-2,5-dicarboxamide], the IC50 under setting [1] is below 2000 nM.

Turning to `CC1(C)[C@H]2CC[C@@H](CNC(=O)c3cccc4nc(C(=O)N5CCC(F)(F)CC5)cn34)[C@@H]1C2` [Compound 485, 2-[(4,4-difluoropiperidin-1-yl)carbonyl]-N-{[(1S,2R,5S)-6,6-dimethylbicyclo[3.1.1]hept-2-yl]methyl} imidazo[1,2-a]pyridine-5-carboxamide], the IC50 under setting [1] was below 2000 nM.

With `CC1(C)[C@H]2CC[C@@H](CNC(=O)c3cccc4nc(C(=O)N5CCC(C(F)(F)F)CC5)cn34)[C@@H]1C2` [Compound 488], the IC50 under setting [1] is below 2000 nM.

As for `CC1(C)CCCN(C(=O)c2cn3c(C(=O)NC[C@@H]4CC[C@H]5C[C@@H]4C5(C)C)cccc3n2)C1` [Compound 491, N-{[(1S,2R,5S)-6,6-dimethylbicyclo [3.1.1]hept-2-yl]methyl}-2-[(3,3-dimethyl-piperidin-1-yl)carbonyl]imidazo [1,2-a]pyridine-5-carboxamide], the IC50 is below 2000 nM.

In the case of `CO[C@H]1CCN(C(=O)c2cn3c(C(=O)NC[C@@H]4CC[C@H]5C[C@@H]4C5(C)C)cccc3n2)C1` [Compound 492, N-{[(1S,2R,5S)-6,6-dimethylbicyclo[3.1.1]hept-2-yl]methyl}-2-{[(3S)-3-methoxypyrrolidin-1-yl]carbonyl}imidazo [1,2-a]pyridine-5-carboxamide], the IC50 under setting [1] is below 2000 nM.

For the compound `COC1CCN(C(=O)c2cn3c(C(=O)NC[C@@H]4CC[C@H]5C[C@@H]4C5(C)C)cccc3n2)CC1` [Compound 493, N-{[(1S,2R,5S)-6,6-dimethylbicyclo [3.1.1]hept-2-yl]methyl}-2-[(4-methoxy-piperidin-1-yl)carbonyl] imidazo[1,2-a] pyridine-5-carboxamide], the IC50 under setting [1] was below 2000 nM.

As for `CC1(C)[C@H]2CC[C@@H](CNC(=O)c3cccc4nc(C(=O)N5CCC(F)CC5)cn34)[C@@H]1C2` [Compound 494, N-{[(1S,2R,5S)-6,6-dimethylbicyclo[3.1.1]hept-2-yl]methyl}-2-[(4-fluoropiperidin-1-yl)carbonyl]imidazo[1,2-a]pyridine-5-carboxamide], the IC50 under setting [1] is below 2000 nM.

Regarding `CC1(C)[C@H]2CC[C@@H](CNC(=O)c3cccc4nc(C(=O)NC5CCC5)cn34)[C@@H]1C2` [Compound 495, 2-N-cyclobutyl-5-N-{[(1S,2R,5S)-6.6-dimethylbicyclo[3.1.1]hept-2-yl]methyl} imidazo[1,2-a]pyridine-2,5-dicarboxamide], the IC50 under setting [1] was below 2000 nM.
